Source: PubChem BioAssay (NCI)
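GI50: concentration for 50% inhibition of growth. At the TGI there is no net growth.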

Tests used:
Assay in all cases: growth of human tumour cells (NCI), 384-well format
HCC-2998 colon = test system: HCC-2998 colon
SNB-75 CNS = test system: SNB-75 CNS
MDA-MB-468 breast = test system: MDA-MB-468 breast
OVCAR-8 ovarian = test system: OVCAR-8 ovarian
SF-295 CNS = test system: SF-295 CNS
EKVX NSCLC = test system: EKVX NSCLC
SW-620 colon = test system: SW-620 colon
OVCAR-5 ovarian = test system: OVCAR-5 ovarian
NCI/ADR-RES ovarian = test system: NCI/ADR-RES ovarian
PC-3 prostate = test system: PC-3 prostate
SK-MEL-28 melanoma = test system: SK-MEL-28 melanoma
SF-539 CNS = test system: SF-539 CNS
A498 renal = test system: A498 renal
CCRF-CEM leukemia = test system: CCRF-CEM leukemia
NCI-H460 NSCLC = test system: NCI-H460 NSCLC
RPMI-8226 leukemia = test system: RPMI-8226 leukemia
TK-10 renal = test system: TK-10 renal
HS 578T breast = test system: HS 578T breast
HT29 colon = test system: HT29 colon
BT-549 breast = test system: BT-549 breast
M14 melanoma = test system: M14 melanoma
MDA-MB-435 melanoma = test system: MDA-MB-435 melanoma
MDA-MB-231 breast = test system: MDA-MB-231 breast
HCT-116 colon = test system: HCT-116 colon
IGROV1 ovarian = test system: IGROV1 ovarian
NCI-H522 lung = test system: NCI-H522 lung
NCI-H23 lung = test system: NCI-H23 lung
U251 glioblastoma = test system: U251 glioblastoma
SNB-19 CNS = test system: SNB-19 CNS
HCT-15 colon = test system: HCT-15 colon
UACC-62 melanoma = test system: UACC-62 melanoma
HOP-92 NSCLC = test system: HOP-92 NSCLC
MALME-3M melanoma = test system: MALME-3M melanoma
OVCAR-4 ovarian = test system: OVCAR-4 ovarian
NCI-H322M lung = test system: NCI-H322M lung
HOP-62 NSCLC = test system: HOP-62 NSCLC
ACHN renal = test system: ACHN renal
MCF7 breast = test system: MCF7 breast
NCI-H226 lung = test system: NCI-H226 lung
RXF 393 renal = test system: RXF 393 renal
SK-MEL-5 melanoma = test system: SK-MEL-5 melanoma
DU-145 prostate = test system: DU-145 prostate
T-47D breast = test system: T-47D breast
A549 NSCLC = test system: A549 NSCLC
COLO 205 colon = test system: COLO 205 colon
LOX IMVI melanoma = test system: LOX IMVI melanoma
KM12 colon = test system: KM12 colon
UACC-257 melanoma = test system: UACC-257 melanoma
SN12C renal = test system: SN12C renal
MOLT-4 leukemia = test system: MOLT-4 leukemia
786-0 renal = test system: 786-0 renal
SK-OV-3 ovarian = test system: SK-OV-3 ovarian
OVCAR-3 ovarian = test system: OVCAR-3 ovarian
SF-268 CNS = test system: SF-268 CNS
CAKI-1 renal = test system: CAKI-1 renal
HL-60(TB) leukemia = test system: HL-60(TB) leukemia
UO-31 renal = test system: UO-31 renal
SR leukemia = test system: SR leukemia

CC(O)c1cc(C(=O)N[C@@H](C)Cn2ccc(-c3ccc(C#N)c(Cl)c3)n2)n[nH]1 (stereo partly specified) showed a GI50 (HCC-2998 colon) of over 100 µM, a TGI (HCC-2998 colon) of over 100 µM and a GI50 (SNB-75 CNS) of over 74.4 µM. The TGI (SNB-75 CNS) was over 100 µM, the GI50 (MDA-MB-468 breast) was 12 µM and the TGI (MDA-MB-468 breast) was 42 µM. It also gave a GI50 (OVCAR-8 ovarian) of 35.3 µM, a TGI (OVCAR-8 ovarian) of 96.9 µM and a GI50 (SF-295 CNS) of over 57.4 µM. It also gave a TGI (SF-295 CNS) of over 100 µM, a GI50 (EKVX NSCLC) of 34.8 µM and a TGI (EKVX NSCLC) of over 100 µM. For the same compound, the GI50 (SW-620 colon) was over 100 µM, the TGI (SW-620 colon) was over 100 µM and the GI50 (OVCAR-5 ovarian) was over 100 µM. It also gave a TGI (OVCAR-5 ovarian) of over 100 µM, a GI50 (NCI/ADR-RES ovarian) of over 100 µM and a TGI (NCI/ADR-RES ovarian) of over 100 µM. For the same compound, the GI50 (PC-3 prostate) was over 100 µM, the TGI (PC-3 prostate) was over 100 µM and the GI50 (SK-MEL-28 melanoma) was over 100 µM. It also gave a TGI (SK-MEL-28 melanoma) of over 100 µM, a GI50 (SF-539 CNS) of over 100 µM and a TGI (SF-539 CNS) of over 100 µM. It also gave a GI50 (A498 renal) of over 100 µM, a TGI (A498 renal) of over 100 µM and a GI50 (CCRF-CEM leukemia) of 31.5 µM. It also gave a TGI (CCRF-CEM leukemia) of over 100 µM, a GI50 (NCI-H460 NSCLC) of over 76.4 µM and a TGI (NCI-H460 NSCLC) of over 100 µM. The GI50 (RPMI-8226 leukemia) was 21.9 µM, the TGI (RPMI-8226 leukemia) was over 70.8 µM and the GI50 (TK-10 renal) was over 100 µM. It also gave a TGI (TK-10 renal) of over 100 µM, a GI50 (HS 578T breast) of 65.6 µM and a TGI (HS 578T breast) of over 100 µM. It also gave a GI50 (HT29 colon) of over 100 µM, a TGI (HT29 colon) of over 100 µM and a GI50 (BT-549 breast) of 36.7 µM. For the same compound, the TGI (BT-549 breast) was 98.6 µM, the GI50 (M14 melanoma) was over 83.3 µM and the TGI (M14 melanoma) was over 100 µM. It also gave a GI50 (MDA-MB-435 melanoma) of over 74.1 µM, a TGI (MDA-MB-435 melanoma) of over 100 µM and a GI50 (MDA-MB-231 breast) of 42.1 µM. It also gave a TGI (MDA-MB-231 breast) of over 100 µM, a GI50 (HCT-116 colon) of 33.8 µM and a TGI (HCT-116 colon) of over 100 µM. The GI50 (IGROV1 ovarian) was over 100 µM, the TGI (IGROV1 ovarian) was over 100 µM and the GI50 (NCI-H522 lung) was 43.3 µM. It also gave a TGI (NCI-H522 lung) of over 100 µM, a GI50 (NCI-H23 lung) of 27.2 µM and a TGI (NCI-H23 lung) of over 100 µM. The GI50 (U251 glioblastoma) was over 100 µM, the TGI (U251 glioblastoma) was over 100 µM and the GI50 (SNB-19 CNS) was over 100 µM. It also gave a TGI (SNB-19 CNS) of over 100 µM, a GI50 (HCT-15 colon) of 59 µM and a TGI (HCT-15 colon) of over 100 µM. For the same compound, the GI50 (UACC-62 melanoma) was over 80.4 µM, the TGI (UACC-62 melanoma) was over 100 µM and the GI50 (HOP-92 NSCLC) was over 100 µM. For the same compound, the TGI (HOP-92 NSCLC) was over 100 µM, the GI50 (MALME-3M melanoma) was over 56.3 µM and the TGI (MALME-3M melanoma) was over 100 µM. For the same compound, the GI50 (OVCAR-4 ovarian) was 31.3 µM, the TGI (OVCAR-4 ovarian) was over 100 µM and the GI50 (NCI-H322M lung) was 34.9 µM. The TGI (NCI-H322M lung) was over 100 µM, the GI50 (HOP-62 NSCLC) was over 67.6 µM and the TGI (HOP-62 NSCLC) was over 100 µM. For the same compound, the GI50 (ACHN renal) was over 46.4 µM, the TGI (ACHN renal) was over 69.6 µM and the GI50 (MCF7 breast) was 57.7 µM. It also gave a TGI (MCF7 breast) of over 100 µM, a GI50 (NCI-H226 lung) of 35.6 µM and a TGI (NCI-H226 lung) of over 75.9 µM. The GI50 (RXF 393 renal) was 22.9 µM, the TGI (RXF 393 renal) was 69.6 µM and the GI50 (SK-MEL-5 melanoma) was 17.5 µM. For the same compound, the TGI (SK-MEL-5 melanoma) was 36.5 µM, the GI50 (DU-145 prostate) was over 100 µM and the TGI (DU-145 prostate) was over 100 µM. It also gave a GI50 (T-47D breast) of 17.8 µM, a TGI (T-47D breast) of 59.4 µM and a GI50 (A549 NSCLC) of over 93.4 µM. It also gave a TGI (A549 NSCLC) of over 100 µM, a GI50 (COLO 205 colon) of over 82.6 µM and a TGI (COLO 205 colon) of over 100 µM. It also gave a GI50 (LOX IMVI melanoma) of 40.2 µM, a TGI (LOX IMVI melanoma) of over 100 µM and a GI50 (KM12 colon) of over 92.4 µM. The TGI (KM12 colon) was over 100 µM, the GI50 (UACC-257 melanoma) was over 80.4 µM and the TGI (UACC-257 melanoma) was over 100 µM. For the same compound, the GI50 (SN12C renal) was over 100 µM, the TGI (SN12C renal) was over 100 µM and the GI50 (MOLT-4 leukemia) was 15.2 µM. The TGI (MOLT-4 leukemia) was 29 µM, the GI50 (786-0 renal) was over 100 µM and the TGI (786-0 renal) was over 100 µM. The GI50 (SK-OV-3 ovarian) was over 64.3 µM, the TGI (SK-OV-3 ovarian) was over 100 µM and the GI50 (OVCAR-3 ovarian) was over 94.2 µM. The TGI (OVCAR-3 ovarian) was over 100 µM, the GI50 (SF-268 CNS) was over 76.2 µM and the TGI (SF-268 CNS) was over 100 µM. For the same compound, the GI50 (CAKI-1 renal) was over 88.3 µM, the TGI (CAKI-1 renal) was over 100 µM and the GI50 (HL-60(TB) leukemia) was 28.9 µM. It also gave a TGI (HL-60(TB) leukemia) of over 61.9 µM, a GI50 (UO-31 renal) of over 45.2 µM and a TGI (UO-31 renal) of over 63 µM. It also gave a GI50 (SR leukemia) of 15.9 µM and a TGI (SR leukemia) of 33.8 µM.
